Converted amounts (≈) assume the structure as drawn.
system: Acinetobacter baumannii; assay: Antimicrobial activity against Acinetobacter baumannii B9 containing carbapenemase blaOXA-23 gene assessed as growth inhibition by Etest method; type: functional

| Molecule | MIC [µg/mL] |
| --- | --- |
| NCC[C@H](O)C(=O)N[C@@H]1C[C@H](N)[C@@H](O[C@H]2O[C@H](CN)[C@@H](O)[C@H](O)[C@H]2O)[C@H](O)[C@H]1O[C@H]1O[C@H](CO)[C@@H](O)[C@H](N)[C@H]1O [AMIKACIN] | 8 (≈ 13.7 µM) |
| CC1(C)S[C@@H]2[C@H](NC(=O)[C@H](N)c3ccc(O)cc3)C(=O)N2[C@H]1C(=O)O [AMOXICILLIN] | > 256 |
| C[C@H]1[C@H](NC(=O)/C(=N\OC(C)(C)C(=O)O)c2csc(N)n2)C(=O)N1S(=O)(=O)O [AZTREONAM] | 32 (≈ 73.5 µM) |
| CO/N=C(\C(=O)N[C@@H]1C(=O)N2C(C(=O)[O-])=C(C[N+]3(C)CCCC3)CS[C@H]12)c1csc(N)n1 [CEFEPIME] | > 256 |
| CO/N=C(\C(=O)N[C@@H]1C(=O)N2C(C(=O)O)=C(COC(C)=O)CS[C@H]12)c1csc(N)n1 [CEFOTAXIME] | > 256 |
| CO/N=C(\C(=O)N[C@@H]1C(=O)N2C(C(=O)[O-])=C(C[n+]3cccc4c3CCC4)CS[C@H]12)c1csc(N)n1 [CEFPIROME] | > 256 |
| CC(C)(O/N=C(\C(=O)N[C@@H]1C(=O)N2C(C(=O)[O-])=C(C[n+]3ccccc3)CS[C@H]12)c1csc(N)n1)C(=O)O [CEFTAZIDIME] | > 256 |
| CO/N=C(\C(=O)N[C@@H]1C(=O)N2C(C(=O)O)=C(COC(N)=O)CS[C@H]12)c1ccco1 [CEFUROXIME] | > 256 |
| CC(=O)OCC1=C(C(=O)O)N2C(=O)[C@@H](NC(=O)Cc3cccs3)[C@H]2SC1 [CEPHALOTHIN] | > 256 |
| O=C(O)c1cn(C2CC2)c2cc(N3CCNCC3)c(F)cc2c1=O [CIPROFLOXACIN] | > 32 |
| C[C@@H](O)[C@H]1C(=O)N2C(C(=O)O)=C(S[C@@H]3CN[C@H](C(=O)Nc4cccc(C(=O)O)c4)C3)[C@H](C)[C@H]12 [ERTAPENEM] | > 32 |
| C[C@@H](O)[C@H]1C(=O)N2C(C(=O)O)=C(SCCNC=N)C[C@H]12 [IMIPENEM ANHYDROUS] | 48 (≈ 160 µM) |
| C[C@@H](O)[C@H]1C(=O)N2C(C(=O)O)=C(S[C@@H]3CN[C@H](C(=O)N(C)C)C3)[C@H](C)[C@H]12 [MEROPENEM] | 24 (≈ 62.6 µM) |
| CO[C@@]1(NC(=O)C(C(=O)O)c2ccc(O)cc2)C(=O)N2C(C(=O)O)=C(CSc3nnnn3C)CO[C@@H]21 (stereo partly specified) [MOXALACTAM] | > 256 |
| CCn1cc(C(=O)O)c(=O)c2ccc(C)nc21 [NALIDIXIC ACID] | > 256 |
| CCN[C@@H]1C[C@H](N)[C@@H](O[C@H]2OC(CN)=CC[C@H]2N)[C@H](O)[C@H]1O[C@H]1OC[C@](C)(O)[C@H](NC)[C@H]1O [NETILMICIN] | 8 (≈ 16.8 µM) |
| CC1COc2c(N3CCN(C)CC3)c(F)cc3c(=O)c(C(=O)O)cn1c23 (stereo unspecified) [OFLOXACIN] | > 32 |
| CCn1cc(C(=O)O)c(=O)c2cc(F)c(N3CCN(C)CC3)cc21 [PEFLOXACIN] | > 256 |
| CCN1CCN(C(=O)N[C@@H](C(=O)N[C@@H]2C(=O)N3[C@@H]2SC(C)(C)[C@@H]3C(=O)O)c2ccccc2)C(=O)C1=O [PIPERACILLIN] | > 256 |
| CC1(C)S[C@@H]2[C@H](NC(=O)[C@H](C(=O)O)c3ccsc3)C(=O)N2[C@H]1C(=O)O [TICARCILLIN] | > 256 |
| GENTAMICIN | 8 |

— ChEMBL document CHEMBL1212760, “First isolation of the blaOXA-23 carbapenemase gene from an environmental Acinetobacter baumannii isolate” (2010)
